# Experimental data as given in patent US20250312499A1, “KISSPEPTIN RECEPTOR (KISS1R) TARGETED THERAPEUTICS AND USES THEREOF” (priority 2024, published 2025).
# Square brackets hold non-standard residues; d marks the D form. Peptide text beside a SMILES is read from it. * marks the point of attachment. DOTA = O=C(O)CN1CCN(CC(=O)O)CCN(CC(=O)*)CCN(CC(=O)O)CC1; Ala(9-anthryl) = N[C@@H](Cc1c2ccccc2cc2ccccc12)C(=O)O; Gly(N-(3-F-4-Me-benzyl)) = Cc1ccc(CNCC(=O)*)cc1F; Propanoyl(3-(MeO(CH2CH2O)2)) = COCCOCCOCCC(=O)*; Api(1-amidino) = N=C(N)N1CCC(N)(C(=O)O)CC1; Bip = N[C@@H](Cc1ccc(-c2ccccc2)cc1)C(=O)O; d2Nal = N[C@H](Cc1ccc2ccccc2c1)C(=O)O; 4Pal = N[C@@H](Cc1ccncc1)C(=O)O; 4Amb = NCc1ccc(C(=O)O)cc1; Api = NC1(C(=O)O)CCNCC1; Ahx = NCCCCCC(=O)O; azaGly = NNC(=O)O; Sar = CNCC(=O)O
# Biological target: human kisspeptin receptor (Homo sapiens (Human), UniProt Q969F8)
# Test: Human KISS1R binding assay (membrane competition binding)
# Conditions: 90 min at room temperature; competition with 0.2 nM [125I]-metastin (45-54); Flp-In T-Rex 293 kisspeptin membranes; metal complexes nonradioactive Ga, In, Lu; read-out: hKiSSR Binding Ki (90 min)
# Procedure, shortened: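 Radioligand competition: 0.2 nM [125I]-metastin (45-54) displaced by test ligand (usually 0–10,000 nM) over 90 min at room temperature, pH 7.4 buffer with 0.1% BSA. Receptor source is crude membrane (5–10 μg) from tetracycline-induced Flp-In T-Rex 293 cells. Bound label filtered and counted; Ki from non-linear regression.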
# Chain of human kisspeptin receptor (Q969F8 whole entry): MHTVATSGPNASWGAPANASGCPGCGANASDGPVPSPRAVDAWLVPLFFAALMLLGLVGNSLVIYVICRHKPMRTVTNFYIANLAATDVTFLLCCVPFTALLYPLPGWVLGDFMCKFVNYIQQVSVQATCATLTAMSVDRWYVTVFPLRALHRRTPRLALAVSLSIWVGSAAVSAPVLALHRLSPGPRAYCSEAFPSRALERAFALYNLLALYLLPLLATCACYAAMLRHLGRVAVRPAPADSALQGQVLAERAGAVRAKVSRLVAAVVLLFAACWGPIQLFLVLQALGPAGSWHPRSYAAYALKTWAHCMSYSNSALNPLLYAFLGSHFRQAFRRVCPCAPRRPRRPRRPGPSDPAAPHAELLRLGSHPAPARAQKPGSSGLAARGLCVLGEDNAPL
row,Ki [nM],Compound
1,< 10,COCCOCCOCCC(=O)N[C@H](Cc1ccc(O)cc1)C(=O)N[C@@H](CCCCNC(=O)CN1CCN(CC(=O)O)CCN(CC(=O)O)CCN(CC(=O)O)CC1)C(=O)N[C@@H](CC(N)=O)C(=O)N[C@H](C(=O)N[C@@H](Cc1ccccc1)C(=O)NNC(=O)N[C@@H](CC(C)C)C(=O)NC1(C(=O)N[C@@H](Cc2c[nH]c3ccccc23)C(N)=O)CCN(C(=N)N)CC1)[C@@H](C)O [Compound 197] ({Propanoyl(3-(MeO(CH2CH2O)2))}-[dY]K(DOTA)NTF[azaGly]L[Api(1-amidino)]W-NH2)
2,< 10,CC(C)C[C@H](NC(=O)NNC(=O)[C@H](Cc1ccccc1)NC(=O)[C@@H](NC(=O)[C@H](CC(N)=O)NC(=O)[C@H](Cc1ccc(-c2ccccc2)cc1)NC(=O)[C@@H](Cc1ccc(O)cc1)NC(=O)CCCCCNC(=O)CN1CCN(CC(=O)O)CCN(CC(=O)O)CCN(CC(=O)O)CC1)[C@@H](C)O)C(=O)NC1(C(=O)N[C@@H](Cc2c[nH]c3ccccc23)C(N)=O)CCN(C(=N)N)CC1 [Compound 198] ({DOTA-Ahx}-[dY][Bip]NTF[azaGly]L[Api(1-amidino)]W-NH2)
3,> 100,CC(C)C[C@H](NC(=O)[C@H](Cc1ccccc1)NC(=O)[C@H](CC(N)=O)NC(=O)[C@H](CCCNC(=N)N)NC(=O)[C@H](CC(N)=O)NC(=O)[C@@H](NC(=O)CCCCCNC(=O)CN1CCN(CC(=O)O)CCN(CC(=O)O)CCN(CC(=O)O)CC1)[C@@H](C)O)C(=O)NC1(C(=O)N[C@@H](Cc2ccccc2)C(N)=O)CCN(C(=N)N)CC1 [Compound 199] ({DOTA-Ahx}-TNRNFL[Api(1-amidino)]F-NH2)
4,< 10,CNCC(=O)N1CCC(NC(=O)[C@H](CC(C)C)NC(=O)NNC(=O)[C@H](Cc2ccccc2)NC(=O)[C@@H](NC(=O)[C@H](CC(N)=O)NC(=O)[C@@H](Cc2ccc3ccccc3c2)NC(=O)[C@@H](Cc2ccc(O)cc2)NC(=O)CCCCCNC(=O)CN2CCN(CC(=O)O)CCN(CC(=O)O)CCN(CC(=O)O)CC2)[C@@H](C)O)(C(=O)N[C@@H](Cc2c[nH]c3ccccc23)C(N)=O)CC1 [Compound 201] ({DOTA-Ahx}-[dY][d2Nal]NTF[azaGly]L[Api](Sar)W-NH2)
5,10 to 100,CNCC(=O)N1CCC(NC(=O)[C@H](CC(C)C)NC(=O)NNC(=O)[C@H](Cc2ccccc2)NC(=O)[C@@H](NC(=O)[C@H](CC(N)=O)NC(=O)[C@H](Cc2c3ccccc3cc3ccccc23)NC(=O)[C@@H](Cc2ccc(O)cc2)NC(=O)CN2CCN(CC(=O)O)CCN(CC(=O)O)CCN(CC(=O)O)CC2)[C@@H](C)O)(C(=O)N[C@@H](Cc2ccncc2)C(N)=O)CC1 [Compound 202] ({DOTA}-[dY][Ala(9-anthryl)]NTF[azaGly]L[Api](Sar)[4Pal]-NH2)
6,< 10,CSCC[C@H](NC(=O)c1ccc(CNC(=O)CN2CCN(CC(=O)O)CCN(CC(=O)O)CCN(CC(=O)O)CC2)cc1)C(=O)N[C@@H](Cc1ccccc1)C(=O)N[C@@H](CCCCNC(=O)CCCCC(=O)N[C@@H](Cc1ccccc1)C(=O)NNC(=O)N[C@@H](CC(C)C)C(=O)NC1(C(=O)N[C@@H](Cc2c[nH]c3ccccc23)C(N)=O)CCN(C(=O)CNCc2ccc(C)c(F)c2)CC1)C(=O)O [Compound 203]
7,< 10,Cc1ccc(CNCC(=O)N2CCC(NC(=O)[C@H](CC(C)C)NC(=O)NNC(=O)[C@H](Cc3ccccc3)NC(=O)[C@@H](NC(=O)[C@H](CC(N)=O)NC(=O)c3ccc(CNC(=O)CN4CCN(CC(=O)O)CCN(CC(=O)O)CCN(CC(=O)O)CC4)cc3)[C@@H](C)O)(C(=O)N[C@@H](Cc3ccc(O)cc3)C(N)=O)CC2)cc1F [Compound 205] ({DOTA-4Amb}-NTF[azaGly]L[Api](Gly(N-(3-F-4-Me-benzyl)))Y-NH2)

row,Compound,Ki [nM]
1,Cc1ccc(CNCC(=O)N2CCC(NC(=O)[C@H](CC(C)C)n3cc([C@H](Cc4ccccc4)NC(=O)[C@@H](N)CCCCNC(=O)CN4CCN(CC(=O)O)CCN(CC(=O)O)CCN(CC(=O)O)CC4)nn3)(C(=O)N[C@@H](Cc3c[nH]c4ccccc34)C(N)=O)CC2)cc1F [Compound 204],> 100
